Laboratory results from ChEMBL document CHEMBL1201862, “PubChem BioAssay data set” (2004).
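The compound was tested at five concentrations on cells cultured in 96-well plates, with a 48-hour exposure period. Abbreviation: GI50, concentration required for 50% inhibition of growth.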 Calls of active or inactive are those of the source. No stated cut-off is given here; in the data, active = GI50 up to about 1.1 µM and inactive = higher.

Columns and labels:
Experiment in all cases: NCI tumour cell line growth inhibition, 48 h
NCI-H522 = system: NCI-H522
NCI-H460 = system: NCI-H460
HCC 2998 = system: HCC 2998
HT-29 = system: HT-29
ACHN = system: ACHN
NCI-H226 = system: NCI-H226
OVCAR-5 = system: OVCAR-5
Hs-578T = system: Hs-578T
EKVX = system: EKVX
BT-549 = system: BT-549
SK-MEL-5 = system: SK-MEL-5
OVCAR-3 = system: OVCAR-3
NCI-H23 = system: NCI-H23
A549 = system: A549
786-0 = system: 786-0
M14 = system: M14
PC-3 = system: PC-3
OVCAR-8 = system: OVCAR-8
UO-31 = system: UO-31
IGROV-1 = system: IGROV-1
COLO 205 = system: COLO 205
DU-145 = system: DU-145
HOP-62 = system: HOP-62
CAKI-1 = system: CAKI-1
KM12 = system: KM12
SF-539 = system: SF-539
MCF7 = system: MCF7
TK-10 = system: TK-10
SK-OV-3 = system: SK-OV-3
SNB-75 = system: SNB-75
Malme-3M = system: Malme-3M
LOX IMVI = system: LOX IMVI
UACC-257 = system: UACC-257
HCT-15 = system: HCT-15
MDA-N = system: MDA-N
SF-268 = system: SF-268
UACC-62 = system: UACC-62
NCI/ADR-RES = system: NCI/ADR-RES
RXF 393 = system: RXF 393
MDA-MB-231 = system: MDA-MB-231
SNB-19 = system: SNB-19
SF-295 = system: SF-295
K562 = system: K562
CCRF-CEM = system: CCRF-CEM
SW-620 = system: SW-620
HL-60 = system: HL-60
HOP-92 = system: HOP-92
SK-MEL-2 = system: SK-MEL-2
OVCAR-4 = system: OVCAR-4
MDA-MB-435 = system: MDA-MB-435
HCT-116 = system: HCT-116
SK-MEL-28 = system: SK-MEL-28
SN12C = system: SN12C
U-251 = system: U-251
MOLT-4 = system: MOLT-4

## O=C1NC2ON=C(c3ccccc3)C2C2ON=C(c3ccccc3)N12 (stereo unspecified)
NCI-H522
  GI50: 40.5 µM (inactive)
NCI-H460
  GI50: > 100 µM (inactive)
HCC 2998
  GI50: > 100 µM (inactive)
HT-29
  GI50: 41.2 µM (inactive)
ACHN
  GI50: > 100 µM (inactive)
NCI-H226
  GI50: > 100 µM (inactive)
OVCAR-5
  GI50: > 100 µM (inactive)
Hs-578T
  GI50: 63.2 µM (inactive)
EKVX
  GI50: > 100 µM (inactive)
BT-549
  GI50: > 100 µM (inactive)
SK-MEL-5
  GI50: 54 µM (inactive)
OVCAR-3
  GI50: > 100 µM (inactive)
NCI-H23
  GI50: > 100 µM (inactive)
A549
  GI50: > 100 µM (inactive)
786-0
  GI50: > 100 µM (inactive)
M14
  GI50: > 100 µM (inactive)
PC-3
  GI50: 72.4 µM (inactive)
OVCAR-8
  GI50: 64.6 µM (inactive)
UO-31
  GI50: > 100 µM (inactive)
IGROV-1
  GI50: 54.3 µM (inactive)
COLO 205
  GI50: > 100 µM (inactive)
DU-145
  GI50: > 100 µM (inactive)
HOP-62
  GI50: > 100 µM (inactive)
CAKI-1
  GI50: > 100 µM (inactive)
KM12
  GI50: 69.2 µM (inactive)
SF-539
  GI50: > 100 µM (inactive)
MCF7
  GI50: 77.4 µM (inactive)
TK-10
  GI50: > 100 µM (inactive)
SK-OV-3
  GI50: > 100 µM (inactive)
SNB-75
  GI50: > 100 µM (inactive)
Malme-3M
  GI50: > 100 µM (inactive)
LOX IMVI
  GI50: 90.4 µM (inactive)
UACC-257
  GI50: > 100 µM (inactive)
HCT-15
  GI50: 43.4 µM
MDA-N
  GI50: 39.6 µM (inactive)
SF-268
  GI50: > 100 µM (inactive)
UACC-62
  GI50: > 100 µM (inactive)
NCI/ADR-RES
  GI50: 45.9 µM (inactive)
RXF 393
  GI50: > 100 µM (inactive)
MDA-MB-231
  GI50: > 100 µM (inactive)
SNB-19
  GI50: 92 µM (inactive)
SF-295
  GI50: > 100 µM (inactive)

## O=C(CCN1CCCC1)c1ccc(Oc2ccc(F)cc2)cc1
NCI-H460
  GI50: > 100 µM (inactive)
HCC 2998
  GI50: 45.1 µM (inactive)
HT-29
  GI50: 32.5 µM (inactive)
ACHN
  GI50: > 100 µM (inactive)
NCI-H226
  GI50: > 100 µM (inactive)
K562
  GI50: 42.4 µM (inactive)
OVCAR-5
  GI50: > 100 µM (inactive)
Hs-578T
  GI50: 30.1 µM (inactive)
EKVX
  GI50: 93.3 µM (inactive)
BT-549
  GI50: 74 µM (inactive)
CCRF-CEM
  GI50: 26.5 µM (inactive)
SK-MEL-5
  GI50: 44.8 µM (inactive)
OVCAR-3
  GI50: 30.9 µM (inactive)
NCI-H23
  GI50: > 100 µM (inactive)
SW-620
  GI50: 78.7 µM (inactive)
A549
  GI50: > 100 µM (inactive)
HL-60
  GI50: 16 µM (inactive)
786-0
  GI50: 16.6 µM (inactive)
M14
  GI50: 31 µM (inactive)
HOP-92
  GI50: 15 µM (inactive)
PC-3
  GI50: 38.5 µM (inactive)
SK-MEL-2
  GI50: > 100 µM (inactive)
OVCAR-4
  GI50: > 100 µM (inactive)
OVCAR-8
  GI50: > 100 µM (inactive)
MDA-MB-435
  GI50: > 100 µM (inactive)
UO-31
  GI50: 50.9 µM (inactive)
IGROV-1
  GI50: 33 µM (inactive)
COLO 205
  GI50: 23 µM (inactive)
DU-145
  GI50: 53.5 µM (inactive)
HOP-62
  GI50: > 100 µM (inactive)
HCT-116
  GI50: 60.8 µM (inactive)
CAKI-1
  GI50: 16.3 µM (inactive)
KM12
  GI50: 29.9 µM (inactive)
SF-539
  GI50: 29.9 µM (inactive)
MCF7
  GI50: 15.6 µM (inactive)
TK-10
  GI50: 30.1 µM (inactive)
SK-OV-3
  GI50: > 100 µM (inactive)
SK-MEL-28
  GI50: > 100 µM (inactive)
SNB-75
  GI50: 47.8 µM (inactive)
Malme-3M
  GI50: 27.8 µM (inactive)
LOX IMVI
  GI50: 30.5 µM (inactive)
UACC-257
  GI50: 43.1 µM (inactive)
HCT-15
  GI50: 41.3 µM
SN12C
  GI50: 97.1 µM (inactive)
MDA-N
  GI50: 58.3 µM (inactive)
U-251
  GI50: > 100 µM (inactive)
SF-268
  GI50: 87.3 µM (inactive)
UACC-62
  GI50: 54.2 µM (inactive)
NCI/ADR-RES
  GI50: > 100 µM (inactive)
RXF 393
  GI50: 22.3 µM (inactive)
MOLT-4
  GI50: 24.4 µM (inactive)
MDA-MB-231
  GI50: > 100 µM (inactive)
SNB-19
  GI50: > 100 µM (inactive)
SF-295
  GI50: 90.2 µM (inactive)
